Measurements reported in patent EP1790337A2, “Methods and compounds for treating depression and other disorders” (priority 1998, dated 2000).
Counter-ions that a name gives are not always drawn.

Experiments:
NMDA receptor [1] = experiment: NMDA assay: fura-2 measurement of cytosolic calcium in cultured rat cerebellar granule cells; assay type: cell-based
Protocol: All culture media, antibiotics, and enzymes, with the exception of fetal calf serum (Hyclone Laboratories, Logan, UT), were purchased from Sigma Chemical Co., St. Louis, MO. Fura-2/AM was obtained from Molecular Probes, Eugene, OR, and was prepared freshly in dimethylsulfoxide (DMSO) before use. Ionomycin (Calbiochem) was stored as a stock solution in DMSO. Nifedipine (Sigma) and nimodipine (RBI) were dissolved in absolute ethanol. […] All other agents were dissolved in phosphate-buffered saline (PBS), and adjusted to pH 7.4
Briefly, primary cultures of cerebellar granule neurons were obtained from 8-day-old rats and plated onto squares of Aclar plastic coated with poly-L-lyaine. The plastic squares were placed in 12-well culture plates, and ~7.5 x 10^5 cells were added to each well. […] No changes of culture medium were made until the cells were used for fluorescence recording 6-8 days after plating.
The cells were then rinsed with the same buffer, lacking fura-2/AM, and maintained at room temperature until used for measurement of fluorescence, the Aclar squares were transferred into quartz cuvettes containing 2 ml of the HEPES buffer. […] Fluorescence was measured using excitation and emission wavelengths of 340 and 510 nm, respectively.

NMDA receptor [2] = experiment: [3H]MK-801 binding assay, synaptic plasma membranes from rat cortex; settings: read-out: [^3H]MK-801 data IC50
Protocol: Synaptic plasma membranes (SPMs) from rat cortex were prepared as follows. […] The cortices from 25 rats were thawed and pooled. […] The extensive washing procedure utilized in this assay was designed to minimize the concentrations of glutamate and glycine (co-agonists at the NMDA receptor-ionophore complex) present in the membrane preparation.
On the day of assay, aliquots of SPM were thawed and resuspended in 75 vols of 5 mM K-EDTA, pH 7.0.
The SPM pellet was resuspended in assay buffer (30 mM EPPS, 1 mM K-EDTA, pH 7.0) by polytron. […] Binding was started by the addition of the tissue homogenate. The assay was terminated by the addition of 4 ml ice-cold buffer, followed by filtration over glass-fiber filters (Schleicher & Schuell No. 30) on a Millipore 12-well filtration manifold. […] Radioactivity on the filters was measured using Fisherbrand Scinti-Safe scintillation cocktail. Samples were shaken for 45-60 min on a shaker platform to solubilize the radioactivity. Counting for ^3H was performed in a Beckman 6000IC LS Scintillation Counter for 4 min per sample.

[3] = target: norepinephrine transporter site (Rattus norvegicus, UniProt Q63380); experiment: Norepinephrine reuptake inhibition assay ([3H]nisoxetine binding, forebrain membranes); settings: read-out: NE Uptake, mean % inhibition
Protocol: (§1) Monoamine transporter binding assays (reuptake inhibition assays) were performed by NovaScreen using standard radioligand binding assays. The transporter binding assays are described briefly below:
(§2) Reactions were terminated by rapid vacuum filtration onto glass fiber filters.

[4] = target: dopamine transporter site (Cavia porcellus, UniProt H0WCX4); experiment: Dopamine reuptake inhibition assay ([3H]WIN 35428 binding, striatal membranes); set-up: species or system Guinea pig; settings: read-out: DA Uptake, mean % inhibition; for inhibition at 0.1 µM: @ 100 nM (top number); for inhibition at 10 µM: @ 10.0 µM (bottom number)
Protocol: as §1, §2

Sequence of norepinephrine transporter site (Q63380 1-617): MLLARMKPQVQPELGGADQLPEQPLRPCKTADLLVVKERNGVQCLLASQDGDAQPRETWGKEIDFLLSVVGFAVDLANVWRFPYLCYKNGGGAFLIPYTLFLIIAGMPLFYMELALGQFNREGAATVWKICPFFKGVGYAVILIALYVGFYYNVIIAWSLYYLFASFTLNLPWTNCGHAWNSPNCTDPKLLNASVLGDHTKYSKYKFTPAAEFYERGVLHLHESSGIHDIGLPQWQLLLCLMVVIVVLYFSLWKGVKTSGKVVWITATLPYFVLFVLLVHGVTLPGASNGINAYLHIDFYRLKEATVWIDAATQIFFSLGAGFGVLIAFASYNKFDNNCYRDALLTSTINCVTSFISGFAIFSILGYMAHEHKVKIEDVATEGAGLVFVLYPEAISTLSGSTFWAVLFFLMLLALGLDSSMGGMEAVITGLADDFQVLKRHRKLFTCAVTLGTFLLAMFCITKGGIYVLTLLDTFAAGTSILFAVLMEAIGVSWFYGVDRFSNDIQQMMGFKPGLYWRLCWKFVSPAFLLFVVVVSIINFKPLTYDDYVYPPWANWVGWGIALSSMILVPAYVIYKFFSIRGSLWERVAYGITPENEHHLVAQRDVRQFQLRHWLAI
Sequence of dopamine transporter site (H0WCX4 1-619): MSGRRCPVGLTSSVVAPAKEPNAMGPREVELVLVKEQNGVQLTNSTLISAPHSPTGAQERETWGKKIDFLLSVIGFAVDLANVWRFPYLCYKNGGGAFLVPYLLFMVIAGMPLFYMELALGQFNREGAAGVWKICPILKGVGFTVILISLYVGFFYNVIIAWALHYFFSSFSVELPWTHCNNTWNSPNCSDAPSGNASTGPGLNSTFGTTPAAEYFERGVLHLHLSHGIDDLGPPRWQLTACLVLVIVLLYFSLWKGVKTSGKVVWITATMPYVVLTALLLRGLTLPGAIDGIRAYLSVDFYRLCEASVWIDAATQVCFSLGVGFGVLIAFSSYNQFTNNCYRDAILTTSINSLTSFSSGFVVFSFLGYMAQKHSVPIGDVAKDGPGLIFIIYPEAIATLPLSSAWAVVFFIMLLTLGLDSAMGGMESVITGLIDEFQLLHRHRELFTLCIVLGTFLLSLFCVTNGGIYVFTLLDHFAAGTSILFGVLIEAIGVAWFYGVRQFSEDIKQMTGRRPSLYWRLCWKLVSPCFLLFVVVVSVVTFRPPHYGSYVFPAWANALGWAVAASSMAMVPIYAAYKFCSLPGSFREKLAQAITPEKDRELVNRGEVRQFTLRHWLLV

SMILES	IC50 (NMDA receptor [1]; read-out: fura2 data IC50, fura-2 [Ca2+]i)	IC50 (NMDA receptor [2])	inhibition at 0.1 µM [3]	inhibition at 10 µM [3]	inhibition at 0.1 µM [4]	inhibition at 10 µM [4]	IC50 (NMDA receptor [1]; fura-2 [Ca2+]i, read-out: fura2 data IC50)
NCCC(Oc1cccc(F)c1)c1cccc(F)c1 (stereo not drawn) [Compound 119, 3-(3-Fluorophenoxy)-3-(3-fluorophenyl)-1-propylamine]	0.115 µM	0.087 µM	8.9%	19.4%	1.9%	58.3%	–
NCCC1c2ccccc2CCc2ccccc21 [Compound 156, 5-(2-Aminoethyl)-5H-10, 11-dihydrodibenzo [a,d] cycloheptene hydrochloride]	–	–	–	–	–	–	0.069 µM
Fc1ccc([C@@H]2CCNC[C@H]2COc2ccc3c(c2)OCO3)cc1 [Paroxetine, reference compound]	–	–	< 20%	50%	< 20%	97%	–
CNCCC(Oc1ccc(C(F)(F)F)cc1)c1ccccc1 (stereo not drawn) [Fluoxetine]	–	–	–	–	–	78%	–
